{
  "source": "paper PMC5025758",
  "about": "(Nature Communications, 2016)",
  "target": "KasA (Mycobacterium tuberculosis, UniProt P9WQD9)",
  "sequence (P9WQD9 whole entry)": "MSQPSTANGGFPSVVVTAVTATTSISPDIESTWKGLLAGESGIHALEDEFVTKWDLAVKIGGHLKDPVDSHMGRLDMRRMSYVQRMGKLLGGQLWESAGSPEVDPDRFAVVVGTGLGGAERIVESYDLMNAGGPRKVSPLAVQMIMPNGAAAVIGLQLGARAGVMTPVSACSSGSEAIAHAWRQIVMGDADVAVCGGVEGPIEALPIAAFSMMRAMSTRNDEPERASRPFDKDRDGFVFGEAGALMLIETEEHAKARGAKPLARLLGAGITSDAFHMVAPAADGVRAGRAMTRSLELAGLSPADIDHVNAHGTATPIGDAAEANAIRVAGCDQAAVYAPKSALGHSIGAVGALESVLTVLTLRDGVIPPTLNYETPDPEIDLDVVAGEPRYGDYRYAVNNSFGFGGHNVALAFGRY",
  "type": "cell-based",
  "data": [
    {"smiles": "CCCCS(=O)(=O)Nc1ccc2cnn(CCCN)c2c1", "note": "[compound 1, tagged analogue (1)]", "values": [
      {"measurement": "bead-immobilized probe captures KasA from M. bovis BCG extract, competed by free", "value": "only three proteins were efficiently competed off the beads by excess GSK3011724A: KasA"}
    ]}
  ]
}
